# Laboratory results from patent US11969412B2, “Methods and compounds for the treatment or prevention of hypercytokinemia and severe influenza” (Poolbeg Pharma (UK) Limited, priority 2017, dated 2024).
# Where two headings read alike, the source gives them in different places.
# Columns and labels:
# [1] = system: immune cells (PBMCs plus granulocytes stimulated with A549 viral soup); assay: cells; type: cell-based, human
# [2] = system: p38MAPK; assay: Western blotting of p38MAPK and HSP27 phosphorylation in A549 cells after A549 viral soup; type: cell-based, human; conditions: western blot
# Description: In vitro data were generated from A549 cells to test the effect of A549 viral soup application on p38 activation as measured by western blotting of the phosphorylation status of p38MAPK itself and downstream signalling target, HSP27. For western blotting confluent cells were washed in PBS and lysed in RIPA with protease inhibitor (Sigma-P8340), phosphatase inhibitor cocktails 2 and 3 (Sigma P5726 and P0044) and phosphatase inhibitors Na3VO4 and NaF on ice. Protein concentrations were determined using the Pierce BCA Protein Assay Kit and equal concentrations of each sample created in 4× Laemmli sample buffer (BIO-RAD 161-0747) with 2-mercaptoethanol. Samples were run on a 12% gel and then transferred on to nitrocellulose. Membranes were blocked using 5% milk powder, then hybridised with p38 MAPK rabbit antibody (Cell Signalling Technologies, cat. no. 9212S) and phosphorylated p38 MAPK rabbit antibody (Cell Signalling Technologies, cat. no. 9211S), or HSP27 antibody (Cell signalling Technologies, cat. no. 2402) and phospho-HSP27 antibody (Cell signalling Technologies, cat. no. 9709). Secondary antibodies were anti-rabbit HRP (Cell signalling Technologies catalogue no. CS7074P2) and anti-mouse HRP (Cell signalling, catalogue no. 7076S), respectively. Membranes were stripped for re-probing using Restore™ PLUS Western Blot Stripping Buffer (Life technologies #46430). […]
# [3] = system: p38MAPK; assay: Western blotting of HSP27 phosphorylation in HUVEC cells after HBEC viral soup; type: cell-based, human; conditions: pre-incubation, western blot
# Description: For western blotting confluent cells were washed in PBS and lysed in RIPA with protease inhibitor (Sigma-P8340), phosphatase inhibitor cocktails 2 and 3 (Sigma P5726 and P0044) and phosphatase inhibitors Na3VO4 and NaF on ice. […] The membranes were treated with Amersham ECL Prime Western Blotting Detection Reagent (GE/Amersham #RPN2232) and imaged using ChemiDoc™ Touch Imaging System (BIORAD). Analysis was performed using the Image Lab software.
# In vitro data were generated from HUVEC cells to test the effect of HBEC viral soup application on p38 activation as measured by western blotting of the phosphorylation status of the p38MAPK downstream signalling target, HSP27.
# [4] = system: p38MAPK; assay: Western blotting of HSP27 phosphorylation in immune cells (PBMCs) after A549 viral soup; type: cell-based, human; conditions: pre-incubation, western blot
# [5] = system: immune cells (PBMCs); type: cell-based, human
# [6] = system: influenza virus; conditions: cited from earlier work; for survival rate at Day 20 of infection: controls 14%
# [7] = system: endothelial cells (HUVECs); assay: cells; type: cell-based, human
# [8] = system: HBEC cells; assay: Inflammatory mediator production in HBEC cells after HBEC viral soup (MSD analysis); type: cell-based, human; conditions: HBECs treated prior to HBEC viral soup
# [9] = Homo sapiens, A549, read-out: IC50 IL1B
# [10] = Homo sapiens, A549, read-out: IC50 IL6
# [11] = Homo sapiens, A549, read-out: IC50 IL8
# [12] = Homo sapiens, A549, read-out: IC50 TNFa
# [13] = Homo sapiens, HUVEC, read-out: IC50 IL10
compound,measurement,setting,value
CC[C@H]1OC(=O)[C@H](C)[C@@H](O[C@H]2C[C@@](C)(OC)[C@@H](O)[C@H](C)O2)[C@H](C)[C@@H](O[C@@H]2O[C@H](C)C[C@H](N(C)C)[C@H]2O)[C@](C)(O)C[C@@H](C)CN(C)[C@H](C)[C@@H](O)[C@]1(C)O [Azithromycin],iMax IL1B,[1],50%
same,iMax IL6,[1],45%
same,iMax IL8,[1],46%
same,iMax TNFa,[1],63%
same,IC50,[1]; [9],0.5 nM
same,IC50,[1]; [10],119 nM
same,IC50,[1]; [11],0.8 nM
same,IC50,[1]; [12],86.9 nM
Cc1cc(F)ccc1-c1nc(NC(CO)CO)nc2c1ccc(=O)n2-c1c(F)cccc1F [Dilmapimod],induction of both p38MAPK and HSP27 phosphorylation,[2],dose dependently inhibit
same,induction of HSP27 phosphorylation,[3],dose dependently inhibit
same,induction of HSP27 phosphorylation,[4],dose dependently inhibit
same,"A549 viral soup induced release of TNFα, IL-1-β, IL-6 and CXCL8",[5],significantly attenuate
CC[C@H]1OC(=O)[C@H](C)[C@@H](O[C@H]2C[C@@](C)(OC)[C@@H](O)[C@H](C)O2)[C@H](C)[C@@H](O[C@@H]2O[C@H](C)C[C@H](N(C)C)[C@H]2O)[C@](C)(O)C[C@@H](C)C(=O)[C@H](C)[C@@H](O)[C@]1(C)O [EM],survival rate at Day 20 of infection,[6]; 1.0 mg/kg/d,42%
same,survival rate of mice infected with influenza virus,"[6]; 3.3 mg/kg/d intraperitoneally, Days 1-6 after infection",significantly improved
same,survival rate at Day 20 of infection,[6]; 3.3 mg/kg/d,57%
Cn1cc2c(-c3ccc(F)cc3)c(-c3ccncc3)c(-c3ccc(F)cc3)nc2n1 [Formula III],production of TNFα and IL-8,[5],attenuate
same,production of IL-8 and IP-10,[7],attenuate
same,release of IL-6 and IP-10,[8],attenuated
OCCCn1cc2c(-c3ccc(F)cc3)c(-c3ccncc3)c(-c3ccc(F)cc3)nc2n1 [Formula II],"attenuating the inflammatory response in immune cells, compared with Formula III",[5],consistently better effects than the compound of Formula III
same,production of MIP-1a and IL-8 (TNFa plus IL-6 as stimulus) and TNFa and IL-8 (A549 virus soup as stimulus),[5],attenuate
same,"attenuating the inflammatory response in endothelial cells, compared with Formula III",[7],consistently better effects than the compound of Formula III
same,production of IL-8 and IP-10,[7],attenuate
C[C@H]1C[C@@H]2[C@H]([C@@H](O)C[C@@]3(C)[C@H]2CC[C@]3(O)C(=O)CO)[C@@]2(C)C=CC(=O)C=C12 [Methyl Prednisolone],iMax IL1B,[1],77%
same,iMax IL6,[1],57%
same,iMax IL8,[1],90%
same,iMax TNFa,[1],79%
same,IC50,[1]; [9],8.4 nM
same,IC50,[1]; [10],36.6 nM
same,IC50,[1]; [11],8.4 nM
same,IC50,[1]; [12],20.2 nM
CNC(=O)c1ccc(C)c(-n2c(C)cc(OCc3ccc(F)cc3F)c(Br)c2=O)c1 [PH797804],induction of both p38MAPK and HSP27 phosphorylation,[2],dose dependently inhibit
same,iMax IL1B,[1],79%
same,iMax IL8,[1],87%
same,iMax TNFa,[1],91%
same,IC50,[1]; [9],9.7 nM
same,IC50,[1]; [11],2.3 nM
same,IC50,[1]; [12],3.9 nM
same,"A549 viral soup induced release of TNFα, IL-1-β, IL-6 and CXCL8",[5],significantly attenuate
same,iMax IL8,[7],86%
same,iMax IL10,[7],88%
same,iMax MCP1,[7],36%
same,IC50,"[7]; Homo sapiens, HUVEC, read-out: IC50 IL8",28.9 nM
same,IC50,[7]; [13],7.5 nM
same,IC50,"[7]; Homo sapiens, HUVEC, read-out: IC50 MCP1",13.1 nM
CCc1ccc(CCOc2ccc(CC3SC(=O)NC3=O)cc2)nc1 (centres unmarked) [Pioglitazone],iMax IL6,[1],41%
same,iMax IL8,[1],37%
same,IC50,[1]; [10],0.02 nM
same,IC50,[1]; [11],0.1 nM
CC[C@H](C)C(=O)O[C@H]1C[C@H](O)C=C2C=C[C@H](C)[C@H](CC[C@@H](O)C[C@@H](O)CC(=O)O)[C@H]21 [Pravastatin],iMax IL10,[7],35%
same,IC50,[7]; [13],78 nM
Nc1ccc2ncnc(NCCc3ccc(Oc4ccccc4)cc3)c2c1 [QNZ (EVP4593)],iMax IL8,[1],47%
same,iMax TNFa,[1],37%
same,IC50,[1]; read-out: IC50 IL8,0.2 nM
same,IC50,[1]; read-out: IC50 TNFa,43.6 nM
same,iMax IL8,[7],60%
same,iMax IL10,[7],72%
same,iMax MCP1,[7],44%
same,IC50,[7]; read-out: IC50 IL8,6.5 nM
same,IC50,[7]; read-out: IC50 IL10,3.3 nM
same,IC50,[7]; read-out: IC50 MCP1,3.84 nM
COc1cc(F)c(F)c(Nc2ccc(I)cc2F)c1NS(=O)(=O)C1(C[C@H](O)CO)CC1 [Refametinib],dose-dependent inhibition of IP10 production,[7],Neither Refametinib nor Selumetinib showed dose-dependent inhibition
same,levels of IP10 at higher drug concentrations,[7],appeared to increase
O=C(Nc1c(Cl)cncc1Cl)c1ccc(OC(F)F)c(OCC2CC2)c1 [Roflumilast],iMax IL8,[1],31%
same,iMax TNFa,[1],74%
same,IC50,[1]; [11],0.09 nM
same,IC50,[1]; [12],10.8 nM
Selumetinib,dose-dependent inhibition of IP10 production,[7],Neither Refametinib nor Selumetinib showed dose-dependent inhibition
same,levels of IP10 at higher drug concentrations,[7],appeared to increase
